US20240208968A1, “ALPHA V BETA 6 AND ALPHA V BETA 1 INTEGRIN INHIBITORS AND USES THEREOF” (DiCE Molecules SV, Inc., priority 2021, published 2024)

Legend:
αvβ6 = αvβ6 (Homo sapiens, UniProt P06756+P18564); assay: Solid Phase Integrin αvβ6 Assay; type: binding
How it was run: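 Inhibition of αvβ6 binding to immobilized recombinant TGFb1-LAP (1 μg/mL coating), 1 h at room temperature with 1 mM MnCl2 in BSA/TBST buffer, integrin diluted to 0.2 μg/mL before addition. Streptavidin-HRP/TMB read-out; four-parameter logistic fitting gave IC50.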

αvβ1 = αvβ1 (Homo sapiens, UniProt P05556+P06756); assay: Solid Phase Integrin αvβ1 Assay; type: binding
How it was run: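 Compound competes for αvβ1 binding to immobilized TGFb1-LAP (1 µg/mL coat) in Mn2+ (1 mM MnCl2), 2% BSA binding buffer over 90 min at room temperature, integrin added at 0.2 µg/mL. Read-out: streptavidin-HRP/TMB; IC50 from Levenberg-Marquardt four-parameter fit.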

αvβ6, sequence (P06756 31-992 limits assumed): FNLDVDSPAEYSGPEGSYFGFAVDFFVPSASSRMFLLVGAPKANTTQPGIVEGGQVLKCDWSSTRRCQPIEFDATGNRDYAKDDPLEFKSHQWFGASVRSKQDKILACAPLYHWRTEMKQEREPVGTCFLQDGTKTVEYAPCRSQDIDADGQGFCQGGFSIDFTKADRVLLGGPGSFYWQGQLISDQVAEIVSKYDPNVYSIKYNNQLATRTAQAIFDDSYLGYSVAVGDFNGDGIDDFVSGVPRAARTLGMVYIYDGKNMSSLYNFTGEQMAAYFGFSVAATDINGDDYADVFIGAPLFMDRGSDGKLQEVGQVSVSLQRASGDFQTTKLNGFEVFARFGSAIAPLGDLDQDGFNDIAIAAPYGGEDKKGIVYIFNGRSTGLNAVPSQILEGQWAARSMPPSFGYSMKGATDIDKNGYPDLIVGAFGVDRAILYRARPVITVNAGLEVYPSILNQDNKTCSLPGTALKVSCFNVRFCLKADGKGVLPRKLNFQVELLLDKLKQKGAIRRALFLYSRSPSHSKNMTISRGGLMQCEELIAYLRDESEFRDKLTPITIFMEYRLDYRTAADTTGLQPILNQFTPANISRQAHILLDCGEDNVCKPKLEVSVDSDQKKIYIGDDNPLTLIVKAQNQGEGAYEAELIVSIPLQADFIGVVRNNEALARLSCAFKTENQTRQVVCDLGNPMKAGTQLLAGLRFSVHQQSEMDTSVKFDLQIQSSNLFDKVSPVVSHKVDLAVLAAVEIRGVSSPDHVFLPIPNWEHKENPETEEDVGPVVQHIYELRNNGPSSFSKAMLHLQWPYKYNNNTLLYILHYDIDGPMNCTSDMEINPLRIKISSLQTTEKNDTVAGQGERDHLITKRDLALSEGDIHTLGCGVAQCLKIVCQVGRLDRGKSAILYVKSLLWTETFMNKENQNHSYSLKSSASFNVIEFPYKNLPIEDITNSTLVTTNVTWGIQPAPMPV
αvβ6, sequence (P18564 22-707 limits assumed): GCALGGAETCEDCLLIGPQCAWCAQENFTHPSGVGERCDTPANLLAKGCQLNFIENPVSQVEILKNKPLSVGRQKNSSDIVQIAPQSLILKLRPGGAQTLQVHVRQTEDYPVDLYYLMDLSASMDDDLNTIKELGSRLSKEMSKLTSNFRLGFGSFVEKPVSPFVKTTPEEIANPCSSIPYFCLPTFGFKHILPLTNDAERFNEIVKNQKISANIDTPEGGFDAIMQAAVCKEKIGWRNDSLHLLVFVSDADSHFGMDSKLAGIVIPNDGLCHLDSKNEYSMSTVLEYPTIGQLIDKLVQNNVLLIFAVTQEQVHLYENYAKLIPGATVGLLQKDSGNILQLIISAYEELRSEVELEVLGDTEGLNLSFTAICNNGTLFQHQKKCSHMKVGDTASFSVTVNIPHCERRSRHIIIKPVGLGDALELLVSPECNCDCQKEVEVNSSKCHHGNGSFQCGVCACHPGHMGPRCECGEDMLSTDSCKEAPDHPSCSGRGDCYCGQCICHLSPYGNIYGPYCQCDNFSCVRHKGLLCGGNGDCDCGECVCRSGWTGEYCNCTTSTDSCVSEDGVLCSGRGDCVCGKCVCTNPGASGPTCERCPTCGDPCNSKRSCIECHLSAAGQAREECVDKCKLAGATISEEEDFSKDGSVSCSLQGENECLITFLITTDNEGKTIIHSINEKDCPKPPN
αvβ1, sequence (P06756 31-992 limits assumed): as the sequence (P06756 31-992 limits assumed) above
αvβ1, sequence (P05556 21-728 limits assumed): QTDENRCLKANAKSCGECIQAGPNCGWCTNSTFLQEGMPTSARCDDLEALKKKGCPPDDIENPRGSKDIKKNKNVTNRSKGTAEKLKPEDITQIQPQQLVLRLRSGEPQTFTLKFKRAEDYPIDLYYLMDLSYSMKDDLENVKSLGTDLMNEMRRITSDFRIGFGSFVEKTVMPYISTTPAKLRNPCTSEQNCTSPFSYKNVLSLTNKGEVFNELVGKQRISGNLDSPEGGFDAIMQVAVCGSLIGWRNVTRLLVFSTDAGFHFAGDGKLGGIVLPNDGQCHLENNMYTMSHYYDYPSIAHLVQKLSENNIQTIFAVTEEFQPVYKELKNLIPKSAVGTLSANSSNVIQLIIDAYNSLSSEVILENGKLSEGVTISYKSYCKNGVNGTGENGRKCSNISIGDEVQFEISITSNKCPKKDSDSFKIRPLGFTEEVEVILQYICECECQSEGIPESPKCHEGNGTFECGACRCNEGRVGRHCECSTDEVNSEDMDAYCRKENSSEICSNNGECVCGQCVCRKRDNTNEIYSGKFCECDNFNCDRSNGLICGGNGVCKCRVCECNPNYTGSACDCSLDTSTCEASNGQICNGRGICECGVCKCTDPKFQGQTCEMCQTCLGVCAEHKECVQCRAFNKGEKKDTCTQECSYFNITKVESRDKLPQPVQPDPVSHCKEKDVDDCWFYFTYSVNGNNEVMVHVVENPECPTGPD

SMILES	IC50 (αvβ6)	IC50 (αvβ1)
O=C(O)[C@@H](CO[C@@H]1CCCN(CCCc2ccc3c(n2)NCCC3)C1)NC(=O)C12CCC(CC1)CC2 [Compound 382]	> 1 µM	> 1 µM
O=C(O)C[C@H](NC(=O)[C@@H]1CCCN(CCCc2ccc3c(n2)NCCC3)C1)c1ccc(F)c(C2CC2)c1 [Compound 244-A, 3-(3-cyclopropyl-4-fluorophenyl)-3-((R)-1-(3-(5,6,7,8-tetrahydro-1,8-naphthyridin-2-yl)propyl)piperidine-3-carboxamido)propanoic acid]	< 0.1 µM	< 0.1 µM
Cc1ccn(-c2cccc([C@H](CC(=O)O)NC(=O)[C@@H]3CCCN(CCCc4ccc5c(n4)NCCC5)C3)c2)n1 [Compound 238, (S)-3-(3-(3-methyl-1H-pyrazol-1-yl)phenyl)-3-((R)-1-(3-(5,6,7,8-tetrahydro-1,8-naphthyridin-2-yl)propyl)piperidine-3-carboxamido)propanoic acid]	< 0.1 µM	< 0.1 µM
C[C@@H]1OCCN(c2cccc([C@H](CC(=O)O)NC(=O)[C@@H]3CCCN(CCCc4ccc5c(n4)NCCC5)C3)c2)[C@H]1C [Compound 584]	< 0.1 µM	< 0.1 µM
O=C(O)C[C@H](NC(=O)[C@@H]1CCCN(CCCc2ccc3c(n2)NCCC3)C1)c1cnn(-c2ccccc2)c1 [Compound 616]	< 0.1 µM	< 0.1 µM
C[C@@H]1C[C@H](C(=O)NC[C@H](C(=O)O)c2ccc3ccccc3c2)CN(CCCc2ccc3c(n2)NCCC3)C1 [Compound 634]	0.1 to 1 µM	0.1 to 1 µM
O=C(O)C[C@@H](O[C@@H]1CCCN(Cc2ccc3c(n2)NCCC3)C1)c1ccccc1 [Compound 390]	> 1 µM	> 1 µM
CC1(C)CN(c2cc(Cl)cc(C(CO[C@@H]3CCCN(CCCc4ccc5c(n4)NCCC5)C3)CC(=O)O)c2)CCO1 (stereo partly shown) [Compound 650]	< 0.1 µM	< 0.1 µM
O=C(NC[C@@H](C(=O)O)c1cccc2ccccc12)[C@@H]1CCCN(CCCc2ccc3c(n2)NCCC3)C1 [Compound 250-A, 2-(naphthalen-1-yl)-3-((R)-1-(3-(5,6,7,8-tetrahydro-1,8-naphthyridin-2-yl)propyl)piperidine-3-carboxamido)propanoic acid]	< 0.1 µM	< 0.1 µM
O=C(NC[C@H](C(=O)O)c1cnc2c(ccn2CC2CC2)c1)[C@@H]1CCCN(CCCc2ccc3c(n2)NCCC3)C1 [Compound 327]	< 0.1 µM	< 0.1 µM

Continued, values first:

IC50 (αvβ6)	IC50 (αvβ1)	SMILES
< 0.1 µM	< 0.1 µM	O=C(O)[C@@H](CCO[C@@H]1CCCN(CCCc2ccc3c(n2)NCCC3)C1)Nc1ncnc2ccsc12 [Compound 511]
< 0.1 µM	< 0.1 µM	O=C(NC[C@H](Nc1ncnc2sccc12)C(=O)O)[C@@H]1CCCN(CCCc2ccc3c(n2)NCCC3)C1 [Compound 279, (S)-3-((R)-1-(3-(5,6,7,8-tetrahydro-1,8-naphthyridin-2-yl)propyl)piperidine-3-carboxamido)-2-(thieno[2,3-d]pyrimidin-4-ylamino)propanoic acid]
0.1 to 1 µM	0.1 to 1 µM	Cc1csc2c(N[C@@H](CCO[C@@H]3CCCN(CCCc4ccc5c(n4)NCCC5)C3)C(=O)O)ncnc12 [Compound 471]
< 0.1 µM	< 0.1 µM	O=C(O)[C@@H](CCO[C@@H]1CCCN(CCCc2ccc3c(n2)NCCC3)C1)NC(=O)C12CCC(CC1)CC2 [Compound 331]
0.1 to 1 µM	< 0.1 µM	O=C(N[C@@H](CCO[C@@H]1CCCN(CCCc2ccc3c(n2)NCCC3)C1)C(=O)O)c1c(F)cc(N2CCOC[C@@H]2C(F)(F)F)cc1F [Compound 466]
> 1 µM	> 1 µM	O=C(O)[C@@H](CCO[C@H]1CCCN(CCCc2ccc3c(n2)NCCC3)C1)Nc1ncnc2ccccc12 [Compound 444]
< 0.1 µM	< 0.1 µM	O=C(NC[C@H](Nc1ncc(C(F)(F)F)cn1)C(=O)O)[C@@H]1CCCN(CCCc2ccc3c(n2)NCCC3)C1 [Compound 451]
